The results in this text go back to patent publication US12180226B2, “Spirotricycle RIPK1 inhibitors and methods of uses thereof” (Merck Sharp & Dohme LLC, priority 2021, dated 2024).

Structures can show the parent of a compound that is named as a salt. Bounds are passed on as bounds.

In the assay the target is RIPK1 (recombinant GST-RIPK1 kinase domain, residues 1-327) (Homo sapiens (Human), UniProt Q13546). Briefly: RIPK1-ADP-Glo Enzymatic Assay. Format: biochemical. As to conditions: ADP-Glo; 25 nM GST-RIPK1, 300 μM ATP; assay lower limit ~25 nM; read-out: RIPK1 V0 Ec50. The essentials:
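Using dephosphorylated MBP (3 μM) as substrate and 300 μM ATP, 25 nM baculovirus-produced enzyme was reacted for 150 min after a 30-min compound pre-incubation. Luminescent ADP detection followed; lower confidence limit ~25 nM.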

RIPK1 (recombinant GST-RIPK1 kinase domain, residues 1-327), sequence (Q13546 1-327): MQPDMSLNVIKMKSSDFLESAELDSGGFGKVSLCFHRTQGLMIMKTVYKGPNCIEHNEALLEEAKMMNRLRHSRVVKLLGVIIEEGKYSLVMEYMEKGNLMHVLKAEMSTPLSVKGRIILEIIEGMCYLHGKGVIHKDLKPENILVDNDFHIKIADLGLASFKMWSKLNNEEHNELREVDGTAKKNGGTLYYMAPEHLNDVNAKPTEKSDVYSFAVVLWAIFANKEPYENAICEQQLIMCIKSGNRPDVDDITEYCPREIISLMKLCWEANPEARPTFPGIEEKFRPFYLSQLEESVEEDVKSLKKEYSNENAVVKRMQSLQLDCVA

Take `N#Cc1cnnc(N2CCC3(CC2)O[C@@H]2CC[C@@H](c4cc(F)cc(F)c4)N2C3=O)c1` [Example 4.19, 6-[(5′S,7a′R)-5′-(3,5-difluorophenyl)-3′-oxotetrahydro-1H,3′H-spiro[piperidine-4,2′-pyrrolo[2,1-b] [1,3]oxazol]-1-yl]pyridazine-4-carbonitrile]: the 50% effective concentration (EC50) was 477 nM.

With `CCOc1cccc(C(=O)N2CCC3(CC2)O[C@@H]2CC[C@@H](c4cc(F)cc(F)c4)N2C3=O)n1` [Example 6.83, (5′S,7a′R)-5′-(3,5-difluorophenyl)-1-(6-ethoxypyridine-2-carbonyl)tetrahydro-3′H-spiro[piperidine-4,2′-pyrrolo[2,1-b] [1,3]oxazol]-3′-one], the concentration for a half-maximal effect (EC50) came to 31.8 nM.

With `O=C(c1cnc(C(F)F)cn1)N1CCC2(CC1)O[C@@H]1CC[C@@H](c3cc(F)cc(F)c3)N1C2=O` [Example 6.84, (5′S,7a′R)-1-[5-(difluoromethyl)pyr-azine-2-carbonyl]-5′-(3,5-difluorophenyl)-tetrahydro-3′H-spiro [piperidine-4,2′-pyrrolo[2,1-b][1,3]-oxazol]-3′-one], the EC50 stood at 405 nM.

In the case of `O=C1N2[C@@H](CC[C@H]2c2ccccc2F)OC12CN(c1ncco1)C2` [Example 4.272, (5′S,7a′R)-5′-(2-fluorophenyl)-1-(1,3-oxazol-2-yl)tetrahydro-3′H-spiro[azetidine-3,2′-pyrrolo[2,1-b] [1,3]oxazol]-3′-one], the EC50 worked out at 931 nM.

In the case of `N#Cc1ncc(N2CCC3(CC2)O[C@@H]2CC[C@@H](c4cc(F)cc(F)c4)N2C3=O)cn1` [Example 4.45, 5-[(5′S,7a′R)-5′-(3,5-difluorophenyl)-3′-oxotetrahydro-1H,3′H-spiro[piperidine-4,2′-pyrrolo[2,1-b] [1,3]oxazol]-1-yl]pyrimidine-2-carbonitrile], the EC50 came to 250 nM.

For the molecule `O=C1N2[C@@H](CC[C@H]2c2ccccc2)OC12CCN(c1ncc(-c3cocn3)cc1F)CC2` [Example 21.6, (5′S,7a′R)-1-[3-fluoro-5-(1,3-oxazol-4-yl)pyridin-2-yl]-5′-phenyltetrahydro-3′H-spiro[piperidine-4,2′-pyrrolo[2,1-b][1,3]oxazol]-3′-one], the concentration giving a half-maximal response (EC50) is under 25 nM.

`Cc1ocnc1C(=O)N1CCC2(CC1)O[C@@H]1CC[C@@H](c3cccc(F)c3)N1C2=O` [Example 6.128, (5′S,7a′R)-5′-(3-fluorophenyl)-1-(5-methyl-1,3-oxazole-4-carbonyl)tetrahydro-3′H-spiro[piperidine-4,2′-pyrrolo[2,1-b] [1,3]oxazol]-3′-one]: the EC50 is 42.7 nM.

As for `O=C1N2[C@@H](CC[C@H]2c2ccccc2)OC12CCN(c1cc(-n3ccnc3)ccn1)CC2` [Example 11.21, (5′S,7a′R)-1-[4-(1H-imidazol-1-yl)pyridin-2-yl]-5′-phenyltetrahydro-3′H-spiro[piperidine-4,2′-pyrrolo[2,1-b][1,3]oxazol]-3′-one], the EC50 came out at 229 nM.

As to `COc1nc(N2CCC3(CC2)O[C@@H]2CC[C@@H](c4cc(F)cc(F)c4)N2C3=O)ncc1F` [Example 4.21, (5′S,7a′R)-5′-(3,5-difluorophenyl)-1-(5-fluoro-4-methoxypyrimidin-2-yl)tetrahydro-3′H-spiro[piperidine-4,2′-pyrrolo[2,1-b] [1,3]oxazol]-3′-one], the concentration giving a half-maximal response (EC50) is under 25 nM.

For the molecule `O=C1N2[C@@H](CC[C@H]2c2cc(F)cc(F)c2)OC12CCN(c1ccc(Cl)c3nccn13)CC2` [Example 13.16, (5′S,7a′R)-1-(8-chloroimidazo[1,2-a]pyridin-5-yl)-5′-(3,5-difluorophenyl)tetrahydro-3′H-spiro[piperidine-4,2′-pyrrolo[2,1-b]oxazol]-3′-one, TFA salt], the EC50 amounted to 32 nM.

In the case of `CCOc1cccc(C(=O)N2CCC3(CC2)O[C@@H]2CC[C@@H](c4ccccc4)N2C3=O)c1` [Example 6.139, (5′S,7a′R)-1-(3-ethoxybenzene-1-carbonyl)-5′-phenyl-tetrahydro-3′H-spiro [piperidine-4,2′-pyrrolo[2,1-b][1,3]-oxazol]-3′-one], the EC50 was under 25 nM.

`O=C1N2[C@@H](CC[C@H]2c2cc(F)cc(F)c2)OC12CN(c1ccnc3ccnn13)C2` [Example 4.134, (5′S,7a′R)-5′-(3,5-difluorophenyl)-1-(pyrazolo[1,5-a]pyrimidin-7-yl)tetrahydro-3′H-spiro[azetidine-3,2′-pyrrolo[2,1-b] [1,3]oxazol]-3′-one]: the EC50 was 27.3 nM.

As to `N#Cc1cccc(C(=O)N2CCC3(CC2)O[C@@H]2CC[C@@H](c4cc(F)cc(F)c4)N2C3=O)c1` [Example 5.17, 3-((5′S,7a′R)-5′-(3,5-difluorophenyl)-3′-oxo-tetrahydro-3′H-spiro [piperidine-4,2′-pyrrolo-[2,1-b]oxazole]-1-carbon-yl)benzonitrile], the EC50 came to 25 nM.

As to `COc1ccc2oc(N3CCC4(CC3)O[C@@H]3CC[C@@H](c5ccccc5)N3C4=O)nc2c1` [Example 4.160, (5′S,7a′R)-1-(5-methoxy-1,3-benzoxazol-2-yl)-5′-phenyltetrahydro-3′H-spiro[piperidine-4,2′-pyrrolo[2,1-b] [1,3]oxazol]-3′-one], the concentration for a half-maximal effect (EC50) was determined as 76.8 nM.

For `Cc1cnn(-c2cc(N3CCC4(CC3)O[C@@H]3CC[C@@H](c5ccccc5)N3C4=O)ncn2)c1` [Example 4.26, (5′S,7a′R)-1-[6-(4-methyl-1H-pyrazol-1-yl)pyrimidin-4-yl]-5′-phenyltetrahydro-3′H-spiro[piperidine-4,2′-pyrrolo[2,1-b] [1,3]oxazol]-3′-one], the EC50 is 24.6 nM.

In the case of `Cc1cn(-c2cc(N3CCC4(CC3)O[C@@H]3CC[C@@H](c5ccccc5)N3C4=O)ncn2)cn1` [Example 4.172, (5′S,7a′R)-1-[6-(4-methyl-1H-imidazol-1-yl)pyrimidin-4-yl]-5′-phenyltetrahydro-3′H-spiro[piperidine-4,2′-pyrrolo[2,1-b] [1,3]oxazol]-3′-one], the 50% effective concentration (EC50) came to 25.2 nM.

For the molecule `CC1CC2(CCN1C(=O)c1ncccc1F)O[C@@H]1CC[C@@H](c3cccc(F)c3)N1C2=O` (stereo partly drawn) [Example 6.162, (4R,5′S,7a′R)-5′-(3-fluorophenyl)-1-(3-fluoropyridine-2-carbonyl)-2-methyl-tetrahydro-3′H-spiro [piperidine-4,2′-pyrrolo[2,1-b][1,3]oxazol]-3′-one], the EC50 is 38 nM.

For `CC(C)Oc1cc(N2CCC3(CC2)O[C@@H]2CC[C@@H](c4cc(F)cc(F)c4)N2C3=O)ncc1C#N` [Example 4.41, 6-[(5′S,7a′R)-5′-(3,5-difluorophenyl)-3′-oxotetrahydro-1H,3′H-spiro[piperidine-4,2′-pyrrolo[2,1-b] [1,3]oxazol]-1-yl]-4-[(propan-2-yl)oxy]pyridine-3-carbonitrile], the EC50 is under 25 nM.

In the case of `O=C1N2[C@@H](CC[C@H]2c2ccccc2)OC12CCN(c1csc(C(F)F)c1)CC2` [Example 11.26, (5′S,7a′R)-1-[5-(difluoromethyl)thiophen-3-yl]-5′-phenyltetrahydro-3′H-spiro[piperidine-4,2′-pyrrolo[2,1-b][1,3]oxazol]-3′-one], the EC50 was found to be 132 nM.

Consider `N#Cc1cnc(N2CCC3(CC2)O[C@@H]2CC[C@@H](c4ccccc4)N2C3=O)c(F)c1` [Example 4.72, 5-fluoro-6-[(5′S,7a′R)-3′-oxo-5′-phenyltetrahydro-1H,3′H-spiro[piperidine-4,2′-pyrrolo[2,1-b] [1,3]oxazol]-1-yl]pyridine-3-carbonitrile], for which the EC50 amounted to 29.8 nM.

As to `COc1cc(-n2ccc(N3CCC4(CC3)O[C@@H]3CC[C@@H](c5ccccc5)N3C4=O)n2)ccn1` [Example 11.6, (5′S,7a′R)-1-[1-(2-methoxypyridin-4-yl)-1H-pyrazol-3-yl]-5′-phenyltetrahydro-3′H-spiro[piperidine-4,2′-pyrrolo[2,1-b][1,3]oxazol]-3′-one], the EC50 is 31.4 nM.

Regarding `Cc1cc(N2CCC3(CC2)O[C@@H]2CC[C@@H](c4ccccc4)N2C3=O)cc(C#N)n1` [Example 4.16, 6-methyl-4-[(5′S,7a′R)-3′-oxo-5′-phenyltetrahydro-1H,3′H-spiro[piperidine-4,2′-pyrrolo[2,1-b] [1,3]oxazol]-1-yl]pyridine-2-carbonitrile], the concentration giving a half-maximal response (EC50) was under 25 nM.

Turning to `COC(=O)N1CCC2(CC1)O[C@@H]1CC[C@@H](c3cc(F)cc(F)c3)N1C2=O` [Example 1.2, methyl (5′S,7a′R)-5′-(3,5-difluorophenyl)-3′-oxotetrahydro-1H,3′H-spiro[piperidine-4,2′-pyrrolo[2,1-b] [1,3]oxazole]-1-carboxylate], the EC50 was 115 nM.

Take `O=C1N2[C@@H](CC[C@H]2c2ccccc2)OC12CCN(c1nc3ccccc3o1)CC2` [Example 4.154, (5′S,7a′R)-1-(1,3-benzoxazol-2-yl)-5′-phenyltetrahydro-3′H-spiro[piperidine-4,2′-pyrrolo[2,1-b] [1,3]oxazol]-3′-one]: the 50% effective concentration (EC50) was 35.7 nM.

In the case of `N#Cc1ccc(N2CCC3(CC2)C[C@@H]2OC[C@@H](c4ccccc4)N2C3=O)c(F)c1` [Example 11.3, 3-fluoro-4-[(3′R,7a′S)-5′-oxo-3′-phenyltetrahydro-1H,5′H-spiro[piperidine-4,6′-pyrrolo[2,1-b][1,3]oxazol]-1-yl]benzonitrile], the half-maximal effective concentration (EC50) amounted to 66.9 nM.

As to `O=C(c1cccc2nccnc12)N1CCC2(CC1)O[C@@H]1CC[C@@H](c3cc(F)cc(F)c3)N1C2=O` [Example 6.55, (5′S,7a′R)-5′-(3,5-difluorophenyl)-1-(quinoxaline-5-carbon-yl)tetrahydro-3′H-spiro[piperidine-4,2′-pyrrolo[2,1-b][1,3]-oxazol]-3′-one], the half-maximal effective concentration (EC50) came to 280 nM.

In the case of `COc1ccc(C(=O)N2CCC3(CC2)O[C@@H]2CC[C@@H](c4cc(F)cc(F)c4)N2C3=O)c(F)c1` [Example 5.58, (5′S,7a′R)-5′-(3,5-difluoro-phenyl)-1-(2-fluoro-4-methoxybenzoyl)tetra-hydro-3′H-spiro[piperidine-4,2′-pyrrolo[2,1-b]oxazol]-3'-one], the concentration giving a half-maximal response (EC50) came out at 24.8 nM.
